Each structure is given as a SMILES string.

The test addresses T1, Human M4 (Homo sapiens, UniProt P08173).
T1 construct: Human or rat M4 cDNA, along with the chimeric G protein Gq,5, were transfected into Chinese hamster ovary (CHO-K1) cells; expressed in transfected cells; host or cells: CHO-K1 (M4/Gqi5/CHO)
T1 sequence (P08173 1-479): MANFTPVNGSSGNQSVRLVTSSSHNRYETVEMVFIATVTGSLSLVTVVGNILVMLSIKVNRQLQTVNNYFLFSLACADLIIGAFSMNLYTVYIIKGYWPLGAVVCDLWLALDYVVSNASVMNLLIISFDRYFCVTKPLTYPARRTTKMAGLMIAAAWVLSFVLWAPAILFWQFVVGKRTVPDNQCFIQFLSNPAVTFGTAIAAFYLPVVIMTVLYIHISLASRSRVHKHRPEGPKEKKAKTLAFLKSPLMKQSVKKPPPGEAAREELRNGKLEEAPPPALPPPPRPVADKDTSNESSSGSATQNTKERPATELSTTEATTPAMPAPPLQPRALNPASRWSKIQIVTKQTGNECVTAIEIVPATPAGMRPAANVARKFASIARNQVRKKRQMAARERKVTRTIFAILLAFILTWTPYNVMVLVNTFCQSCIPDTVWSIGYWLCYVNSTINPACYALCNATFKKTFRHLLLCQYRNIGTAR
Briefly: mAChR M4 cell-based functional assay (calcium flux, decrease of EC80 acetylcholine response). The note with it: for Human M4 Emin: % ACh maximum at 30 μM; for IC50: CHO-K1 cells with human M4 and Gqi5, EC80 acetylcholine. An outline of the steps: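 CHO-K1 cells stably co-expressing M4 with chimeric Gqi5, loaded with Fluo-4 AM for 50 min at 37 °C; compounds added as 10-point 1:3 curves, then acetylcholine at EC20 (143 s) and EC80 (268 s). Calcium read by FDSS fluorescence ratio; IC50 from four-parameter fit of decrease in EC80 acetylcholine response.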

`[2H]C1([2H])[C@H](Nc2ccc(-c3cc(F)cc(F)c3F)nn2)C([2H])([2H])[C@H]2CN(CC3CCOCC3)C[C@H]21` [Compound 70]: the “Human M4 Emin” value amounted to 3% and the concentration for half-maximal inhibition (IC50) is 4.4 nM.

For `Fc1cc(F)c(F)c(-c2ccc(N[C@H]3C[C@@H]4CN(CC5CCCCO5)C[C@@H]4C3)nn2)c1` (single isomer, unassigned) [Compound 27], the “Human M4 Emin” value worked out at 4% and the IC50 was determined as 2.14 nM.

`Fc1ccc(OCCN2C[C@H]3C[C@H](Nc4ccc(-c5cc(F)cc(F)c5F)nn4)C[C@H]3C2)cc1` [Compound 58, (3aR,5s,6aS)-2-(2-(4-fluorophenoxy)ethyl)-N-(6-(2,3,5-trifluorophenyl)pyridazin-3-yl)octahydrocyclopenta[c]pyrrol-5-amine]: the “Human M4 Emin” value came to 4% and the IC50 stood at 170 nM.

Take `Fc1cc(F)c(F)c(-c2ccc(N[C@H]3C[C@@H]4CN(CCC5CCOCC5)C[C@@H]4C3)nn2)c1` [Compound 4, (3aR,5s,6aS)-2-(2-(tetrahydro-2H-pyran-4-yl)ethyl)-N-(6-(2,3,5-trifluorophenyl)pyridazin-3-yl)octahydrocyclopenta[c]pyrrol-5-amine]: the “Human M4 Emin” value is on record as 4% and the half-inhibitory concentration (IC50) was 3.09 nM.

Regarding `C[C@]12C[C@H](Nc3ccc(-c4cc(F)cc(F)c4F)nn3)C[C@H]1CN(CC1CCOCC1)C2` (racemic) [Compound 88, (3aR,5S,6aS)-3a-methyl-2-((tetrahydro-2H-pyran-4-yl)methyl)-N-(6-(2,3,5-trifluorophenyl)pyridazin-3-yl)octahydrocyclopenta[c]pyrrol-5-amine and (3aS,5R,6aR)-3a-methyl-2-((tetrahydro-2H-pyran-4-yl)methyl)-N-(6-(2,3,5-trifluorophenyl)pyridazin-3-yl)octahydrocyclopenta[c]pyrrol-5-amine], the “Human M4 Emin” value is reported as 17% and the IC50 is 1.2 nM.

Source of the values: patent publication US20230150986A1, “ANTAGONISTS OF THE MUSCARINIC ACETYLCHOLINE RECEPTOR M4” (Vanderbilt University, priority 2019, published 2023).
